Values after ≈ are worked out from the molar mass of the structure shown. Values joined by “and” are separate entries in the source; they are usually repeats but may differ in a detail not shown here. Equal entries are not always repeated.

Holding throughout (assay): ≥ marks a high value that may be exact or a test limit, other limits are often not marked, values filed in µg/mL are converted to µM
Assay [1] has as its system Legionella pneumophila Lens.
Assay [2] relates to Salmonella enterica subsp. enterica serovar Pullorum ATCC 7913.
The subject of assay [3] is Pseudomonas aeruginosa ATCC 27853.
Assay [4] has as its system Staphylococcus epidermidis ATCC 12228.
The test system of assay [5] is Candida tropicalis CGMCC 2.1975.
Assay [6] deals with Staphylococcus aureus ATCC 43300.
Assay [7] has as its system Escherichia coli K99.
The subject of assay [8] is Salmonella enterica subsp. enterica serovar Typhimurium ATCC 14028.
For assay [9], the system named is Escherichia coli 078.
Assay [10] concerns Candida parapsilosis CGMCC 2.3989.
Assay [11] has as its system Escherichia coli K88.
Assay [12] concerns Escherichia coli UB1005.
Assay [13] has as its system Salmonella enterica subsp. enterica serovar Typhimurium C77-31.
For assay [14], the system named is Staphylococcus aureus ATCC 25923.
Assay [15] deals with Pseudomonas aeruginosa ATCC 10145.
Assay [16] has as its system Escherichia coli MG1655.
The test system of assay [17] is Klebsiella pneumoniae ATCC 700603.
Assay [18] relates to Candida albicans CGMCC 2.2086.
Assay [19] concerns Candida albicans.
The test system of assay [20] is Micrococcus luteus ATCC 4698.
The test system of assay [21] is Staphylococcus xylosus.
The test system of assay [22] is Escherichia coli DH5alpha.

On to `CC[C@H](C)[C@H](NC(=O)[C@H](CC(C)C)NC(=O)[C@H](CC(=O)O)NC(=O)[C@@H](NC(=O)[C@@H](NC(=O)[C@H](Cc1ccccc1)NC(=O)[C@H](CCC(N)=O)NC(=O)[C@@H](N)CCSC)[C@@H](C)CC)[C@@H](C)O)C(=O)NCC(=O)N[C@@H](CCCCN)C(=O)N[C@@H](C)C(=O)N[C@H](C(=O)N[C@@H](CC(=O)O)C(=O)N[C@@H](Cc1ccccc1)C(=O)N[C@@H](Cc1ccccc1)C(=O)N[C@@H](CCCCN)C(=O)NCC(=O)N[C@@H](CC(C)C)C(=O)N[C@@H](Cc1ccccc1)C(=O)NCC(=O)N[C@@H](CC(N)=O)C(=O)N[C@@H](CCCCN)C(=O)O)C(C)C` [MQFITDLIGKAVDFFKGLFGNK], for which the minimal inhibitory concentration (MIC) (commonly the least concentration at which growth counts as inhibited) in assay [1] was found to be 3.7 µM (≈ 9.21 µg/mL).
Same read-out and setting: as for `CC[C@H](C)[C@H](NC(=O)[C@H](C)NC(=O)[C@H](CCCCN)NC(=O)[C@@H](NC(=O)[C@@H](NC(=O)[C@H](CCC(=O)O)NC(=O)[C@@H](NC(=O)[C@@H](NC(=O)[C@H](CCCCN)NC(=O)CNC(=O)[C@H](CC(C)C)NC(=O)[C@@H](NC(=O)[C@H](CC(=O)O)NC(=O)[C@H](CCC(N)=O)NC(=O)[C@H](Cc1ccccc1)NC(=O)[C@@H](NC(=O)[C@H](CCC(N)=O)NC(=O)[C@@H](N)CCSC)[C@@H](C)O)[C@@H](C)CC)C(C)C)[C@@H](C)CC)C(C)C)[C@@H](C)CC)C(=O)N[C@H](C(=O)N[C@@H](CC(=O)O)C(=O)N[C@@H](C)C(=O)N[C@@H](CCCCN)C(=O)O)C(C)C` [MQTFQDILGKVIEVIKAIVDAK], the figure is 5.08 µM (≈ 12.5 µg/mL); as for `CC[C@H](C)[C@H](NC(=O)[C@H](CC(C)C)NC(=O)CNC(=O)[C@H](CCCCN)NC(=O)[C@@H](NC(=O)[C@@H](NC(=O)[C@H](CCC(=O)O)NC(=O)[C@@H](NC(=O)[C@@H](NC(=O)[C@H](CCCCN)NC(=O)[C@H](C)NC(=O)[C@@H](NC(=O)[C@@H](NC(=O)[C@H](CC(=O)O)NC(=O)[C@H](C)NC(=O)[C@@H](N)CCSC)C(C)C)[C@@H](C)CC)[C@@H](C)CC)C(C)C)[C@@H](C)CC)C(C)C)C(=O)N[C@@H](CC(=O)O)C(=O)N[C@@H](CCC(N)=O)C(=O)N[C@@H](Cc1ccccc1)C(=O)N[C@H](C(=O)N[C@@H](CCC(N)=O)C(=O)N[C@@H](CCCCN)C(=O)O)[C@@H](C)O` [MADVIAKIVEIVKGLIDQFTQK], 1.27 µM (≈ 3.12 µg/mL).
On to `CC[C@H](C)[C@H](NC(=O)[C@H](CCCN=C(N)N)NC(=O)[C@H](C)NC(=O)[C@H](C)N)C(=O)N[C@H](C(=O)N[C@@H](CC(C)C)C(=O)N[C@@H](CCCN=C(N)N)C(=O)N[C@@H](Cc1c[nH]c2ccccc12)C(=O)N[C@@H](Cc1ccccc1)C(=O)N[C@@H](CCCN=C(N)N)C(=O)N[C@@H](CCCN=C(N)N)C(N)=O)[C@@H](C)CC` [AARIILRWFRR], for which the MIC came to 4 µM (≈ 5.83 µg/mL) in assay [2]; 8 µM (≈ 11.7 µg/mL) in assay [3]; 2 µM (≈ 2.91 µg/mL) in assay [4]; 4 µM (≈ 5.83 µg/mL) in assay [5]; 8 µM (≈ 11.7 µg/mL) in assay [6]; 2 µM (≈ 2.91 µg/mL) in assay [7]. Further, the MIC in [8] is 4 µM (≈ 5.83 µg/mL); in [9], 1.37 µM (≈ 2 µg/mL); in assay [10] it was 4 µM (≈ 5.83 µg/mL); in [11] it was 2 µM (≈ 2.91 µg/mL); in assay [12], 2 µM (≈ 2.91 µg/mL); in [13], 4 µM (≈ 5.83 µg/mL). Further, the MIC in [14] was determined as 8 µM (≈ 11.7 µg/mL).
The compound `CC[C@H](C)[C@H](NC(=O)[C@H](CC(C)C)NC(=O)[C@H](CCCCN)NC(=O)[C@H](CCCCN)NC(=O)[C@@H](NC(=O)[C@@H](NC(=O)[C@H](CCC(=O)O)NC(=O)[C@@H](NC(=O)[C@@H](NC(=O)[C@H](CCCCN)NC(=O)[C@H](C)NC(=O)[C@@H](NC(=O)[C@@H](NC(=O)CNC(=O)[C@H](C)NC(=O)[C@@H](N)CCSC)C(C)C)[C@@H](C)CC)[C@@H](C)CC)C(C)C)[C@@H](C)CC)C(C)C)C(=O)N[C@@H](CC(=O)O)C(=O)N[C@@H](CCC(N)=O)C(=O)N[C@@H](Cc1ccccc1)C(=O)N[C@H](C(=O)N[C@@H](CCC(N)=O)C(=O)N[C@@H](CCCCN)C(=O)O)[C@@H](C)O` [MAGVIAKIVEIVKKLIDQFTQK] returned a minimal inhibitory concentration (MIC) in assay [1] of 0.94 µM (≈ 2.32 µg/mL).
`CC(C)C[C@H](NC(=O)[C@H](Cc1ccc(O)cc1)NC(=O)[C@H](Cc1cnc[nH]1)NC(=O)[C@H](CCCCN)NC(=O)[C@H](CC(C)C)NC(=O)[C@H](C)NC(=O)[C@H](CC(C)C)NC(=O)[C@H](CCCCN)NC(=O)CNC(=O)[C@@H](NC(=O)[C@@H](NC(=O)[C@H](CCCCN)NC(=O)[C@@H](NC(=O)[C@H](CCC(=O)O)NC(=O)[C@H](C)NC(=O)[C@H](CCCCN)NC(=O)[C@H](CCCCN)NC(=O)[C@H](CC(C)C)NC(=O)[C@H](CC(C)C)NC(=O)[C@@H](NC(=O)[C@H](CCCCN)NC(=O)[C@H](Cc1c[nH]c2ccccc12)NC(=O)CN)[C@@H](C)O)C(C)C)[C@@H](C)O)C(C)C)C(=O)O` [GWKTLLKKAEVKTVGKLALKHYL]: the minimal inhibitory concentration (MIC) in assay [15] was 0.29 µM (≈ 0.761 µg/mL); in assay [16], 9.3 µM (≈ 24.4 µg/mL); in [17], > 9.3 µM; in [14] it was 2.32 µM (≈ 6.09 µg/mL).
As to `CC[C@H](C)[C@H](NC(=O)CNC(=O)[C@H](CCCN=C(N)N)NC(=O)[C@H](Cc1ccccc1)NC(=O)[C@H](CC(C)C)NC(=O)[C@H](CC(C)C)NC(=O)[C@H](Cc1ccccc1)NC(=O)[C@H](CCCN=C(N)N)NC(=O)CNC(=O)[C@@H](NC(=O)[C@@H](N)CCCN=C(N)N)[C@@H](C)CC)C(=O)N[C@@H](CCCN=C(N)N)C(=O)N[C@@H](CCCN=C(N)N)C(=O)N[C@H](C(=O)NCC(=O)N[C@@H](CCCN=C(N)N)C(=O)N[C@@H](Cc1ccccc1)C(=O)N[C@@H](CC(C)C)C(N)=O)[C@@H](C)CC` [RIGRFLLFRGIRRIGRFL], the MIC in [18] was 8 µM (≈ 18 µg/mL); in [5], 8 µM (≈ 18 µg/mL); in [10] it was 16 µM (≈ 35.9 µg/mL); in assay [19] it was 8 µM and 5.66 µM.
In the case of `CC(C)C[C@@H]1NC(=O)[C@H](CCCN=C(N)N)NC(=O)[C@H](CCCCN)NC(=O)[C@H](Cc2c[nH]c3ccccc23)NC(=O)CNC(=O)CNC(=O)[C@@H](N)CSSC[C@@H](C(=O)O)NC(=O)[C@H](CCCN=C(N)N)NC1=O` [CGGWKRLRC], the MIC in [20] stood at 13 µM (≈ 14 µg/mL).
Take `CC[C@H](C)[C@H](NC(=O)[C@H](CC(C)C)NC(=O)[C@@H](NC(=O)[C@H](CC(C)C)NC(=O)[C@@H](NC(=O)[C@H](CC(C)C)NC(=O)[C@H](CCCCN)NC(=O)[C@H](CCCN=C(N)N)NC(=O)[C@H](CCCCN)NC(=O)[C@@H](N)CCCN=C(N)N)[C@@H](C)CC)[C@@H](C)CC)C(=O)N[C@@H](CCCCN)C(=O)N[C@@H](CCCN=C(N)N)C(=O)N[C@@H](CCCCN)C(=O)N[C@@H](CCCN=C(N)N)C(=O)O` [RKRKLILILIKRKR]: the MIC in [21] turned out to be 0.5 µM (≈ 0.917 µg/mL); in assay [22] it was 8 µM (≈ 14.7 µg/mL).
With `CC[C@H](C)[C@H](NC(=O)CNC(=O)[C@H](CCCCN)NC(=O)[C@@H](NC(=O)[C@H](CC(C)C)NC(=O)[C@H](CC(C)C)NC(=O)[C@@H](NC(=O)[C@H](CCCCN)NC(=O)CNC(=O)[C@@H](NC(=O)[C@@H](N)CCCCN)[C@@H](C)CC)C(C)C)C(C)C)C(=O)N[C@@H](CCCCN)C(=O)N[C@@H](CCCCN)C(=O)N[C@H](C(=O)NCC(=O)N[C@@H](CCCCN)C(=O)N[C@H](C(=O)N[C@@H](CC(C)C)C(N)=O)C(C)C)[C@@H](C)CC` [KIGKVLLVKGIKKIGKVL], the MIC in assay [18] is ≥ 32 µM; in assay [5], 16 µM (≈ 30.9 µg/mL); in assay [10], ≥ 32 µM; in assay [19] it was > 64 µM and 32 µM.
Turning to `CC(C)[C@H](NC(=O)[C@H](CCCCN)NC(=O)[C@H](CCCCN)NC(=O)[C@@H](N)CCCCN)C(=O)N[C@H](C(=O)N[C@H](C(=O)N[C@H](C(=O)N[C@H](C(=O)N[C@@H](CCCCN)C(=O)N[C@@H](CCCCN)C(=O)N[C@@H](CCCCN)C(=O)O)C(C)C)C(C)C)C(C)C)C(C)C` [KKKVVVVVKKK], the minimal inhibitory concentration (MIC) in assay [21] was 8 µM (≈ 10.3 µg/mL); in assay [22], ≥ 64 µM.
On the same counts, the results for `CC[C@H](C)[C@H](NC(=O)[C@@H](N)CC(C)C)C(=O)N[C@@H](CCCCN)C(=O)N[C@@H](CCCN=C(N)N)C(=O)N[C@@H](CCCCN)C(=O)O` [LIKRK] are ≥ 64 µM and ≥ 64 µM.
